Data reported in patent US11987575B2, “Tricyclic compounds as BCR-ABL inhibitors” (ASCENTAGE PHARMA (SUZHOU) CO., LTD., priority 2019, dated 2024).

Assays:
BaF3(WT) = BaF3(WT) (Homo sapiens, UniProt P00519); assay: WST (CCK-8) anti-proliferative assay, BaF3 WT; conditions: read-out: BaF3(WT); BaF3 WT cells, 72 h treatment, CCK-8 readout OD 450 nm
BaF3 (T315I mutant) = BaF3 (T315I mutant) (Homo sapiens, UniProt P00519, T315I, cells depend on it); assay: WST (CCK-8) anti-proliferative assay, BaF3 T315I mutant; conditions: read-out: BaF3 (T315I mutant), 72 h treatment, CCK-8 readout OD 450 nm

| Structure (SMILES) | GI50 (BaF3(WT)) | GI50 (BaF3 (T315I mutant)) |
| --- | --- | --- |
| CC(C)N1c2c(-c3ccn[nH]3)cc(C(=O)Nc3ccc(OC(F)(F)Cl)cc3)cc2C2CCN(C)CC21 (stereo not shown) [Compound 40, N-(4-(chlorodifluoromethoxy)phenyl)-9-isopropyl-2-methyl-8-(1H-pyrazol-5-yl)-2,3,4,4a,9,9a-hexahydro-1H-pyrido[3,4-b]indole-6-carboxamide] | 358 nM | 1110 nM |
| CC(C)N1c2c(-c3ccn[nH]3)cc(C(=O)Nc3ccc(OC(F)(F)Cl)cc3)cc2C2CCN(CC(F)(F)F)CC21 (stereo not shown) [Compound 41, N-(4-(chlorodifluoromethoxy)phenyl)-9-isopropyl-8-(1H-pyrazol-5-yl)-2-(2,2,2-trifluoroethyl)-2,3,4,4a,9,9a-hexahydro-1H-pyrido[3,4-b]indole-6-carboxamide] | 120 nM | 850 nM |
| CC(=O)N1CCC2c3cc(C(=O)Nc4ccc(OC(F)(F)Cl)cc4)cc(-c4ccn[nH]4)c3N(C(C)C)C2C1 (stereo not shown) [Compound 42, 2-acetyl-N-(4-(chlorodifluoromethoxy)phenyl)-9-isopropyl-8-(1H-pyrazol-5-yl)-2,3,4,4a,9,9a-hexahydro-1H-pyrido[3,4-b]indole-6-carboxamide] | 38 nM | 115 nM |
| CC(=O)NC1CC2c3cc(C(=O)Nc4ccc(OC(F)(F)Cl)cc4)cc(-c4ccn[nH]4)c3N(C(C)C)C2C1 (stereo not shown) [Compound 43, 2-acetamido-N-(4-(chlorodifluoromethoxy)phenyl)-4-isopropyl-5-(1H-pyrazol-5-yl)-1,2,3,3a,4,8b-hexahydrocyclopenta[b]indole-7-carboxamide] | 190 nM | 768 nM |
| CC(=O)N(C)C1CCC2c3cc(C(=O)Nc4ccc(OC(F)(F)Cl)cc4)cc(-c4ccn[nH]4)c3N(C(C)C)C21 (stereo not shown) [Compound 44, N-(4-(chlorodifluoromethoxy)phenyl)-4-isopropyl-3-(N-methylacetamido)-5-(1H-pyrazol-5-yl)-1,2,3,3a,4,8b-hexahydrocyclopenta[b]indole-7-carboxamide] | 36 nM | 122 nM |
| CC(=O)NC1CCC2c3cc(C(=O)Nc4ccc(OC(F)(F)Cl)cc4)cc(-c4cc[nH]n4)c3N(CC(F)(F)F)C12 (stereo not shown) [Compound 49] | 72 nM | 125 nM |

Compounds with a lower GI50 (BaF3(WT)), results first:

| GI50 (BaF3(WT)) | GI50 (BaF3 (T315I mutant)) | Structure (SMILES) |
| --- | --- | --- |
| 18 nM | 111 nM | CC(=O)NC1CCC2c3cc(C(=O)Nc4ccc(OC(F)(F)Cl)cc4)cc(-c4cc[nH]n4)c3N(CC3(C)CC3)C12 (stereo not shown) [Compound 45] |
| 2 nM | 8 nM | CC(=O)N[C@@H]1CC[C@H]2c3cc(C(=O)Nc4ccc(OC(F)(F)Cl)cc4)cc(-c4cncc(F)c4)c3N(C(C)C)[C@@H]12 [Compound 46-A] |
| 5 nM | 13 nM | CC(=O)N[C@@H]1CC[C@H]2c3cc(C(=O)Nc4ccc(OC(F)(F)Cl)cc4)cc(-c4ccc(C#N)nc4)c3N(C(C)C)[C@@H]12 [Compound 47-A] |
| 2 nM | 14 nM | CC(=O)N[C@@H]1CC[C@H]2c3cc(C(=O)Nc4ccc(OC(F)(F)Cl)cc4)cc(-c4cc(F)cc(C#N)c4)c3N(C(C)C)[C@@H]12 [Compound 48-A] |
| 4 nM | 39 nM | CC(=O)N[C@@H]1CC[C@H]2c3cc(C(=O)Nc4ccc(OC(F)(F)Cl)cc4)cc(-c4cncc(C)c4)c3N(C(C)C)[C@@H]12 [Compound 50-A] |
| 12 nM | 116 nM | COc1cncc(-c2cc(C(=O)Nc3ccc(OC(F)(F)Cl)cc3)cc3c2N(C(C)C)[C@H]2[C@H](NC(C)=O)CC[C@@H]32)c1 [Compound 51-A] |
| 3 nM | 47 nM | CC(=O)N[C@@H]1CC[C@H]2c3cc(C(=O)Nc4ccc(OC(F)(F)Cl)cc4)cc(-c4cncc(Cl)c4)c3N(C(C)C)[C@@H]12 [Compound 52-A] |
| 3 nM | 16 nM | CC(=O)N[C@@H]1CC[C@H]2c3cc(C(=O)Nc4ccc(OC(F)(F)Cl)cc4)cc(-c4cncc(C#N)c4)c3N(C(C)C)[C@@H]12 [Compound 53-A] |
